The source of these data is patent US20250263390A1, “NOVEL SUBSTITUTED 6,7-DIHYDRO-5H-BENZO[7]ANNULENE COMPOUNDS AND THEIR DERIVATIVES, PROCESSES FOR THEIR PREPARATION AND THERAPEUTIC USES THEREOF” (SANOFI, priority 2022, published 2025).

This assay has as its target T1, ERα (Homo sapiens, UniProt P03372).
T1 construct: host or cells: MCF7
T1 sequence (P03372 1-595): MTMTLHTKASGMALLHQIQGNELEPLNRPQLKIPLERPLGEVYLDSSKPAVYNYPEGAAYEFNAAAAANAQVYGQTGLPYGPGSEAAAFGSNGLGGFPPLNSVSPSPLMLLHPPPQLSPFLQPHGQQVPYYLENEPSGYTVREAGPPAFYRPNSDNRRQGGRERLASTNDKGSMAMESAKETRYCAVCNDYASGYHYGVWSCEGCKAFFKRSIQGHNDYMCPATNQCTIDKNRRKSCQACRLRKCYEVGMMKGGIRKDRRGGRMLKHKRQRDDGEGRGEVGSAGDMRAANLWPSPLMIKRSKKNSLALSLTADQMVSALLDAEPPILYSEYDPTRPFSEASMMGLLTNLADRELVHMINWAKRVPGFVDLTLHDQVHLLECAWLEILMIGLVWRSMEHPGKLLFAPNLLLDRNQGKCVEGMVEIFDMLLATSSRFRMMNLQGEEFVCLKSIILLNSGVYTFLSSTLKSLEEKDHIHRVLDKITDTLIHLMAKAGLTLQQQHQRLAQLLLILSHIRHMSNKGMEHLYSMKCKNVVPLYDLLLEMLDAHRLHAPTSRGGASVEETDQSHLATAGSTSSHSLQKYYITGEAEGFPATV
In words: Estrogen receptor degradation activity: breast cancer cell ERα in cell western assay. Type of assay: cell-based. Conditions: MCF7 cells, 4 hours, relative to fulvestrant 0.1 μM positive control. The protocol:
Test: Estrogen Receptor Degradation Activity Said test involves measuring the in vitro degradation activity of the compounds of the Table 1a. The measurements of the degradation activities were made using a breast cancer cell ERα in cell western assay as described hereunder. MCF7 cells (ATCC) were seeded in 384 wells microplate (collagen coated) at a concentration of 10000 cells/30 μL per well in red phenol free MEM alpha medium (invitrogen) containing 5% charcoal dextran striped FBS. The following day, 9 points serial 1:5 dilution of each compound was added to the cells in 2.5p L at final concentrations ranging from 0.3-0.0000018 μM (in table 2), or 0.1 μM for fulvestrant (using as positive control). At 4 hours post compound addition the cells were fixed by adding 25 μL of formalin (final concentration 5% formalin containing 0.1% triton) for 10 minutes at room temperature and then washed twice with PBS. Then, 50 μL of LI-COR blocking buffer containing 0.1% Triton was added to plate for 30 minutes at room temperature. LI-COR blocking buffer was removed and cells were incubated overnight at cold room with 50 μL anti-ER rabbit monoclonal antibody (Thermo scientific MA1-39540) diluted at 1:1000 in LI-COR blocking buffer containing 0.1% tween-20. Wells which were treated with blocking buffer but no antibody were used as background control. Wells were washed twice with PBS (0.1% tween-20) and incubated at 37° C. for 60 minutes in LI-COR (0.1% tween-20) containing goat anti-rabbit antibody Alexa 488 (1:1000) and Syto-64 a DNA dye (2 μM final concentration). Cells were then washed 3 times in PBS and scanned in ACUMEN explorer (TTP-Labtech). Integrated intensities in the green fluorescence and red fluorescence were measured to determine the levels of ERα and DNA respectively. The degradation activity with respect to estrogen receptors in this test is given by the concentration which degrades 50% of the estrogen receptor (or IC50) in nM. The % of ERα levels decrease were determined as follows: % inhibition=100*(1−(sample−fulvestrant: DMSO−fulvestrant)).
Take `O=C(O)c1ccc2c(c1)CCCC(c1cccc(F)c1OC(F)F)=C2c1ccc(CC2CN(CCCF)C2)cc1` [Compound 1, 8-(2-(difluoromethoxy)-3-fluorophenyl)-9-(4-((1-(3-fluoropropyl)azetidin-3-yl)methyl)phenyl)-6,7-dihydro-5H-benzo[7]annulene-3-carboxylic acid]: the “% Degradation At 0.3 μM” value was determined as 85%. To `O=C(O)c1ccc2c(c1)CCCC(c1cccc3c1CCCC3)=C2c1ccc(CC2CN(CCCF)C2)cc1` [Compound 2, 9-(4-((1-(3-fluoropropyl)azetidin-3-yl)methyl)phenyl)-8-(5,6,7,8-tetrahydronaphthalen-1-yl)-6,7-dihydro-5H-benzo[7]annulene-3-carboxylic acid] belongs 86%. Regarding `O=C(O)c1ccc2c(c1)CCCC(C1CCC(CO)C1)=C2c1ccc(CC2CN(CCCF)C2)cc1` (stereo not shown) [Compound 3, 9-(4-((1-(3-fluoropropyl)azetidin-3-yl)methyl)phenyl)-8-(3-(hydroxymethyl)cyclopentyl)-6,7-dihydro-5H-benzo[7]annulene-3-carboxylic acid], the “% Degradation At 0.3 μM” value worked out at 77%. To `COc1c(C2=C(c3ccc(CC4CN(CCCF)C4)cc3)c3ccc(C(=O)O)cc3CCC2)cccc1C(F)(F)F` [Compound 4, 9-(4-((1-(3-fluoropropyl)azetidin-3-yl)methyl)phenyl)-8-(2-methoxy-3-(trifluoromethyl)phenyl)-6,7-dihydro-5H-benzo[7]annulene-3-carboxylic acid] belongs 83%; to `O=C(O)c1ccc2c(c1)CCCC(c1cccc(Cl)c1OC(F)(F)F)=C2c1ccc(CC2CN(CCCF)C2)cc1` [Compound 5, 8-(3-chloro-2-(trifluoromethoxy)phenyl)-9-(4-((1-(3-fluoropropyl)azetidin-3-yl)methyl)phenyl)-6,7-dihydro-5H-benzo[7]annulene-3-carboxylic acid], 87%; to `Cc1c(OC(F)(F)F)cccc1C1=C(c2ccc(CC3CN(CCCF)C3)cc2)c2ccc(C(=O)O)cc2CCC1` [Compound 6, 9-(4-((1-(3-fluoropropyl)azetidin-3-yl)methyl)phenyl)-8-(2-methyl-3-(trifluoromethoxy)phenyl)-6,7-dihydro-5H-benzo[7]annulene-3-carboxylic acid], 90%. Regarding `COc1cccc(C2=C(c3ccc(CC4CN(CCCF)C4)cc3)c3ccc(C(=O)O)cc3CCC2)c1C` [Compound 7, 9-(4-((1-(3-fluoropropyl)azetidin-3-yl)methyl)phenyl)-8-(3-methoxy-2-methylphenyl)-6,7-dihydro-5H-benzo[7]annulene-3-carboxylic acid], the “% Degradation At 0.3 μM” value turned out to be 93%. On to `COc1cccc(C2=C(c3ccc(CC4CN(CCCF)C4)cc3)c3ccc(C(=O)O)cc3CCC2)c1C(F)F` [Compound 8, 8-(2-(difluoromethyl)-3-methoxyphenyl)-9-(4-((1-(3-fluoropropyl)azetidin-3-yl)methyl)phenyl)-6,7-dihydro-5H-benzo[7]annulene-3-carboxylic acid], for which the “% Degradation At 0.3 μM” value came to 89%. In the case of `O=C(O)c1ccc2c(c1)CCCC(c1cccc3c1OCCC3)=C2c1ccc(CC2CN(CCCF)C2)cc1` [Compound 9, 8-(chroman-8-yl)-9-(4-((1-(3-fluoropropyl)azetidin-3-yl)methyl)phenyl)-6,7-dihydro-5H-benzo[7]annulene-3-carboxylic acid], the “% Degradation At 0.3 μM” value was determined as 88%.

Regarding `CC1(C)CCC(C2=C(c3ncc(CC4CN(CCCF)C4)cc3F)c3ccc(C(=O)O)cc3CCC2)CC1` [Compound 10, 8-(4,4-dimethylcyclohexyl)-9-(3-fluoro-5-((1-(3-fluoropropyl)azetidin-3-yl)methyl)pyridin-2-yl)-6,7-dihydro-5H-benzo[7]annulene-3-carboxylic acid], the “% Degradation At 0.3 μM” value came out at 83%. Turning to `COc1cccc(C2=C(c3ccc(CC4CN(CCCF)C4)cc3)c3ccc(C(=O)O)cc3CCC2)c1C(F)(F)F` [Compound 11, 9-(4-((1-(3-fluoropropyl)azetidin-3-yl)methyl)phenyl)-8-(3-methoxy-2-(trifluoromethyl)phenyl)-6,7-dihydro-5H-benzo[7]annulene-3-carboxylic acid], the “% Degradation At 0.3 μM” value came to 86%.

In the case of `O=C(O)c1ccc2c(c1)CCCC(c1cccc3c1CCCO3)=C2c1ccc(CC2CN(CCCF)C2)cc1` [Compound 12, 8-(chroman-5-yl)-9-(4-((1-(3-fluoropropyl)azetidin-3-yl)methyl)phenyl)-6,7-dihydro-5H-benzo[7]annulene-3-carboxylic acid], the “% Degradation At 0.3 μM” value is on record as 86%. For the compound `CC1(C)CCC(C2=C(c3ncc(CC4CN(CCC(F)F)C4)cc3F)c3ccc(C(=O)O)cc3CCC2)CC1` [Compound 13, 9-(5-((1-(3,3-difluoropropyl)azetidin-3-yl)methyl)-3-fluoropyridin-2-yl)-8-(4,4-dimethylcyclohexyl)-6,7-dihydro-5H-benzo[7]annulene-3-carboxylic acid], the “% Degradation At 0.3 μM” value turned out to be 64%.

`Cc1c(OC(F)F)cccc1C1=C(c2ccc(CC3CN(CCCF)C3)cc2)c2ccc(C(=O)O)cc2CCC1` [Compound 14, 8-(3-(difluoromethoxy)-2-methylphenyl)-9-(4-((1-(3-fluoropropyl)azetidin-3-yl)methyl)phenyl)-6,7-dihydro-5H-benzo[7]annulene-3-carboxylic acid]: the “% Degradation At 0.3 μM” value turned out to be 93%.

With `O=C(O)C(F)(F)F.O=C(O)c1ccc2c(c1)CCCC(CCCO)=C2c1ccc(CC2CN(CCCF)C2)cc1` [Compound 15, 9-(4-((1-(3-fluoropropyl)azetidin-3-yl)methyl)phenyl)-8-(3-hydroxypropyl)-6,7-dihydro-5H-benzo[7]annulene-3-carboxylic acid, 2,2,2-trifluoroacetic acid], the “% Degradation At 0.3 μM” value is listed as 100%. On to `COc1cc(C(F)(F)F)ccc1C1=C(c2ccc(CC3CN(CCCF)C3)cc2)c2ccc(C(=O)O)cc2CCC1.Cl` [Compound 16, 9-(4-((1-(3-fluoropropyl)azetidin-3-yl)methyl)phenyl)-8-(2-methoxy-4-(trifluoromethyl)phenyl)-6,7-dihydro-5H-benzo[7]annulene-3-carboxylic acid, hydrochloride], for which the “% Degradation At 0.3 μM” value came out at 92%. In the case of `COc1ccc(C2=C(c3ccc(CC4CN(CCCF)C4)cc3)c3ccc(C(=O)O)cc3CCC2)cc1C(F)(F)F.Cl` [Compound 17, 9-(4-((1-(3-fluoropropyl)azetidin-3-yl)methyl)phenyl)-8-(4-methoxy-3-(trifluoromethyl)phenyl)-6,7-dihydro-5H-benzo[7]annulene-3-carboxylic acid, hydrochloride], the “% Degradation At 0.3 μM” value is 92%. Turning to `Cc1ccc(C(F)(F)F)cc1C1=C(c2ccc(CC3CN(CCCF)C3)cc2)c2ccc(C(=O)O)cc2CCC1` [Compound 18, 9-(4-((1-(3-fluoropropyl)azetidin-3-yl)methyl)phenyl)-8-(2-methyl-5-(trifluoromethyl)phenyl)-6,7-dihydro-5H-benzo[7]annulene-3-carboxylic acid], the “% Degradation At 0.3 μM” value amounted to 78%. As to `COc1cc(C2=C(c3ccc(CC4CN(CCCF)C4)cc3)c3ccc(C(=O)O)cc3CCC2)ccc1C(F)(F)F.Cl` [Compound 19, 9-(4-((1-(3-fluoropropyl)azetidin-3-yl)methyl)phenyl)-8-(3-methoxy-4-(trifluoromethyl)phenyl)-6,7-dihydro-5H-benzo[7]annulene-3-carboxylic acid, hydrochloride], the “% Degradation At 0.3 μM” value came out at 93%.
